Data reported in patent US6548553B2, “Styryl sulfone anticancer agents” (Temple University-of the Commonwealth System of Higher …, priority 1997, dated 2003).

How the values were obtained:
Assay type in all cases: cell-based
LnCaP cells = experiment: Cell cycle analysis by propidium iodide flow cytometry (FACS); settings: 2.0 μM; harvested 6, 12, 24 and 48 hours
Method: The androgen-dependent prostate tumor cell line LnCaP was grown as in Ex. 22, A, and treated with 2.0 μM FRI-20 dissolved in DMSO or with equivalent amounts ([…]) of DMSO alone. Cells were harvested 6, 12, 24, and 48 hours following treatment and stained with propidium iodide and subjected to flow cytometry (FACS) for analysis of DNA content.

NIH3T3 or HFL = experiment: Cell cycle analysis, normal cell lines
JNK = JNK immune complex kinase assay with GST-c-Jun substrate, treated cells; settings: 48 hours treatment; NIH3T3, MCF-7 or LnCaP
Method: To further establish if the activity of stress activated protein kinases (SAPKs), of which JNK is a member, is compromised in the presence of FRI-20, cells (NIH3T3, MCF-7 or LnCaP) were treated with FRI-20 dissolved in DMSO or with DMSO alone. Forty-eight hours later, the cells were lysed with kinase buffer and the lysates used for estimation of the amount of JNK present in each lysate by western blot analysis using JNK polyclonal antibody. The biochemical activity of the JNK present in the FRI-20-treated and mock-treated cell lysates was also determined by immunoprecipitation of JNK followed by incubation with GST-c-Jun protein as a substrate for JNK in the presence of [γ-^32P]ATP.
Accordingly, JNK-1 in 100 mg of cell extracts was immunoprecipitated by incubating the lysate with […] of JNK-1 polyclonal antibody (sc from Santa Cruz Biotechnology) for one hour followed by an additional incubation with 20 μl of protein A-Sepharose (Pharmacia) for one hour. The beads were washed twice with JNK lysis buffer (as described above) followed by two washes with JNK reaction buffer. The beads were resuspended in 40 μl of JNK buffer containing […] [γ-^32P] […] The reaction was stopped, and the radioactivity in the phosphorylated GST-c-Jun protein was quantitated.

O=S(=O)(/C=C/c1ccc(F)cc1)Cc1ccc(Cl)cc1 [Example 11, E-4-fluorostyryl 4-chlorobenzyl Sulfone]
effect on cell cycle (DNA content) (LnCaP cells): accumulation of cells in the G2/M phase of the cell cycle | effect on cell cycle progression (NIH3T3 or HFL): failed to produce a similar effect on cell cycle progression | enhancement of JNK phosphorylation of GST-c-Jun compared to mock-treated cells (JNK): 60-80%
